# Results: US7217776B1, “pH-sensitive methacrylic copolymer gels and the production thereof” (Iowa State University Research Foundation, priority 2003, dated 2007)
# System: NIH/3T3 mouse fibroblasts
# Assay: Cytotoxicity elution test
# Type: cell-based
# Conditions: 24 hours incubation; 3 mg/L, 0.3 mg/L and 0.03 mg/L
# Description: Elution tests were performed on one sample of the pentablock material to assess the cytotoxic properties of the pentablock copolymers. Approximately 30 mg of the polymers to be tested were dissolved in 100 ml of low-glucose Dulbecco's modified eagle medium (DMEM, Sigma) with 10% fetal bovine serum (FBS, Sigma), 10 μg/ml insulin (Sigma), 10 units/ml penicillin/streptomycin (Sigma), and 100 μg/ml L-ascorbic acid (Sigma). This solution was diluted to achieve the desired polymer concentration for all tests.
# NIH/3T3 mouse fibroblasts were grown in polystyrene flasks until reaching confluence at 150 cells/mm. The growth media was removed from the flasks and replaced with one of the following: DMEM (negative control), DMEM with phenol (positive control), DMEM with the pentablock material. The concentrations of the pentablock material and phenol were 3 mg/L, 0.3 mg/L and 0.03 mg/L.
# After 24 hours of incubation in a humidified incubator with 5% CO2 at 37° C. the samples were removed and the media was replaced with Kamovsky's fixative (2.5% glutaraldehyde, 2.0% paraformaldehyde, 0.1M sodium cacodylate) for 12 hours. The samples were then stained with a 20% crystal violet dye (CVD) solution in ethanol for 6 hours followed by dehydration with ethanol. […]
smiles,measurement,value
Oc1ccccc1 [phenol],"cytotoxic response (cell density, morphology, adherence relative to controls)",result expected for a cytotoxic material
